Read-outs that look alike come from different tables or passages of the source.
Assays:
[1] = test system: p-glycoprotein (PGP); design: method as in PMID 28256516; conditions: cited from earlier work
[2] = cited from earlier work
[3] = Plasma drug concentration at end of dosing interval (Ctrough), HPLC–UV, patients with CML; conditions: for Plasma concentrations, median (IQR): all sampled patients with CML on the drug
[4] = cited from earlier work; remark: listed apart in the source
[5] = cited from earlier work; remark: listed apart in the source
[6] = test system: breast-cancer resistance protein (BRCP); design: method as in PMID 28256516; conditions: cited from earlier work
[7] = Cerebrospinal fluid drug concentration at end of dosing interval (Ctrough), HPLC–UV, patients with CML; assay type: in vivo, human; conditions: for Cerebrospinal fluid concentrations, median (IQR): all sampled patients with CML on the drug
[8] = test system: BCR–-ABL kinase; conditions: higher than imatinib; cited from earlier work

## Cc1nc(Nc2ncc(C(=O)Nc3c(C)cccc3Cl)s2)cc(N2CCN(CCO)CC2)n1 [Dasatinib]
[1]
  Substrate of PGP: substrate
[2]
  Blood–brain barrier crossing: ability to cross the blood–brain barrier
[3]; adult patients, N = 3
  Median plasma concentration, adults: 0.4 µg/mL
[3]
  Plasma concentrations, median (IQR): 0.06 (0.03–0.33) µg/mL
[3]; listed as dasatinib
  Plasma concentrations, median (IQR): 0.06 µg/mL
[3]; paediatric patients, N = 36
  Median plasma concentration, paediatrics: 0.05 µg/mL
[4]
  Average half-life: 1.3 to 5 h
  Distribution volume: > 3 L/kg
[4]; oral
  Time of concentration peak after administration: 0.5 to 3 h
[5]; adults with CML who are imatinib-resistant/intolerant
  Patients with drug-related pulmonary hypertension: 2%
[5]; newly diagnosed adults with CML
  Patients with drug-related pulmonary hypertension: 5%
[6]
  Substrate of BCRP: substrate
[7]
  Cerebrospinal fluid concentrations, median (IQR): 0.11 (0.06–0.32) µg/mL
[7]; listed as dasatinib
  Cerebrospinal fluid concentrations, median (IQR): 0.11 µg/mL
[7]; paediatric patients, N = 36
  Median CSF level, paediatrics: 0.11 µg/mL

## Cc1ccc(NC(=O)c2ccc(CN3CCN(C)CC3)cc2)cc1Nc1nccc(-c2cccnc2)n1 [Imatinib]
[2]
  Blood–brain barrier crossing: ability to cross the blood–brain barrier
[4]; oral
  Time of plasma peak: 2 to 4 h

## Cc1cn(-c2cc(NC(=O)c3ccc(C)c(Nc4nccc(-c5cccnc5)n4)c3)cc(C(F)(F)F)c2)cn1 [Nilotinib]
[3]
  Plasma concentrations, median (IQR): 0.19 (0.16–0.22) µg/mL
[3]; two adult male patients
  Mean plasma concentration: 190 ng/mL
[8]
  Strength of inhibition of tyrosine kinase protein's activity versus imatinib: 20–50 times
[4]
  Average half-life: approximately 15 h
[4]; oral
  Bioavailability: approximately 30%
  Time of concentration peak after administration: 3 h

## Cc1ccc(C(=O)Nc2ccc(CN3CCN(C)CC3)c(C(F)(F)F)c2)cc1C#Cc1cnc2cccnn12 [Ponatinib]
[4]
  Half-life: approximately 24 h
[4]; oral
  Time of peak concentration after administration: ≤ 6 h
[7]
  Cerebrospinal fluid concentrations, median (IQR): 0.65 (0.18–1.65) µg/mL
[7]; listed as ponatinib
  Cerebrospinal fluid concentrations, median (IQR): 0.65 µg/mL

From PMC10525795, “Pharmacokinetics of Four Tyrosine Kinase Inhibitors in Adult and Paediatric Chronic Myeloid Leukaemia Patients” (Biomedicines, 2023)
